Assay results as given in patent publication US11535643B2, “Macrolides with modified desosamine sugars and uses thereof” (President and Fellows of Harvard College, priority 2015, dated 2022).
≈ marks a conversion by molar mass, not a printed value. Where two headings read alike, the source gives them in different places.

Experiments:
Format in all cases: cell-based
[1] = system: S. aureus; assay: Broth dilution MIC determination (CLSI) against S. aureus strains
Source text: (§1) Minimum inhibitory concentrations (MICs) for macrolides described herein have been determined for unique strains of S. aureus, S. pneumoniae, S. pyogenes, E. faecalis, E. coli, A. baumannii, K. pneumoniae, P. aeruginosa, and H. influenzae, including several multidrug-resistant strains, with a special focus on macrolide resistant mechanisms. Azithromycin and solithromycin were included as control compounds. CLSI standard procedures for broth dilution MIC determination were used. Data for exemplary compounds described herein is shown in Tables M1-M7 and in Tables N1-N4.

[2] = system: S. pneumoniae; assay: Broth dilution MIC determination (CLSI) against S. pneumoniae strains
Source text: as §1

[3] = system: E. faecalis; assay: Broth dilution MIC determination (CLSI) against E. faecalis strains
Source text: as §1

[4] = system: A. baumannii; assay: Broth dilution MIC determination (CLSI) against A. baumannii strains
Source text: as §1

[5] = system: P. aeruginosa; assay: Broth dilution MIC determination (CLSI) against P. aeruginosa strains
Source text: as §1

[6] = system: S. pyogenes; assay: Broth dilution MIC determination (CLSI) against S. pyogenes strains
Source text: as §1

[7] = system: K. pneumoniae; assay: Broth dilution MIC determination (CLSI) against K. pneumoniae strains
Source text: as §1, with “used.” for “used. Data for exemplary compounds described herein is shown in Tables M1-M7 and in Tables N1-N4.”

[8] = system: E. coli; assay: Broth dilution MIC determination (CLSI) against E. coli strains
Source text: as §1

## CC[C@H]1OC(=O)[C@H](C)C(=O)[C@H](C)[C@@H](O[C@@H]2O[C@H](C)CC(N3CCCC3)C2O)[C@](C)(OC)C[C@@H](C)CN[C@H](C)[C@H]2N(CCCCn3cc(-c4cccc(N)c4)nn3)C(=O)O[C@]12C (some centres unmarked) [FSM-120361]
[1]; Staphylococcus aureus, ATCC29213, ATCC29213, Strain No. MP-12, read-out: MIC S. aureus ATCC29213
  MIC: 32 µg/mL (≈ 37.5 µM)
[1]; Staphylococcus aureus, ATCCBAA977, ATCCBAA-977, Strain No. MP-17, read-out: MIC S. aureus ATCCBAA-977
  MIC: 32 µg/mL (≈ 37.5 µM)
[1]; Staphylococcus aureus, MRSA / USA100, USA100, Strain No. MP-618 UNT-096, read-out: MIC S. aureus (MRSA) USA100
  MIC: > 64 µg/mL
[1]; Staphylococcus aureus, MRSA / USA300, USA300, Strain No. MP-549, read-out: MIC S. aureus (MRSA) USA300
  MIC: 32 µg/mL (≈ 37.5 µM)
[1]; Staphylococcus aureus, MRSA / USA600, GISA USA600, Strain No. MP-619 UNT-120, read-out: MIC S. aureus (MRSA) GISA USA600
  MIC: > 64 µg/mL
[1]; Staphylococcus aureus, MRSA, ST-228 cErm, Strain No. MP-513, read-out: MIC S. aureus (MRSA) ST-228 cErm
  MIC: > 64 µg/mL
[2]; Streptococcus pneumoniae, ATCC49619, ATCC49619, Strain No. MP-21, read-out: MIC S. pneumoniae ATCC49619
  MIC: 0.25 µg/mL (≈ 0.293 µM)
[2]; Streptococcus pneumoniae, read-out: MIC S. pneumoniae mefA, mefA, Strain No. MP-626 UNT-038
  MIC: 0.125 µg/mL (≈ 0.146 µM)
[2]; Streptococcus pneumoniae, read-out: MIC S. pneumoniae mefA, mefA, Strain No. MP-627 UNT-039
  MIC: 0.125 µg/mL (≈ 0.146 µM)
[3]; Enterococcus faecalis, ATCC29212, ATCC29212, Strain No. MP-24, read-out: MIC E. faecalis ATCC29212
  MIC: 4 µg/mL (≈ 4.68 µM)
[3]; Enterococcus faecalis, van resistant, Strain No. UNT-039, read-out: MIC E. faecalis van resistant
  MIC: > 64 µg/mL
[4]; Acinetobacter baumannii, ATCC19606, ATCC19606, Strain No. MP-15, read-out: MIC A. baumannii ATCC19606
  MIC: 32 µg/mL (≈ 37.5 µM)
[4]; Acinetobacter baumannii, clinical, Strain No. MP576, read-out: MIC A. baumannii clinical
  MIC: > 64 µg/mL
[4]; Acinetobacter baumannii, clinical, Strain No. MP577, read-out: MIC A. baumannii clinical
  MIC: 64 µg/mL (≈ 74.9 µM)
[5]; Pseudomonas aeruginosa, PAO1, read-out: MIC P. aeruginosa PAO1
  MIC: > 64 µg/mL
[5]; Pseudomonas aeruginosa, PAO1, read-out: MIC P. aeruginosa PAO1:mex
  MIC: 16 µg/mL (≈ 18.7 µM)
[5]; Pseudomonas aeruginosa, ATCC27853, Strain No. MP-3, read-out: MIC P. aeruginosa ATCC27853
  MIC: > 64 µg/mL
[6]; Streptococcus pyogenes, ATCC19615, ATCC19615, Strain No. MP-19, read-out: MIC S. pyogenes ATCC19615
  MIC: 0.06 µg/mL (≈ 0.0702 µM)
[6]; Streptococcus pyogenes, mac resistant, Strain No. MP-625 UNT-014, read-out: MIC S. pyogenes mac resistant
  MIC: 0.5 µg/mL (≈ 0.585 µM)
[7]; Klebsiella pneumoniae, ATCC10031, ATCC10031, Strain No. MP-14, read-out: MIC K. pneumoniae ATCC10031
  MIC: 4 µg/mL (≈ 4.68 µM)
[7]; Klebsiella pneumoniae, clinical, Strain No. MP546, read-out: MIC K. pneumoniae clinical
  MIC: > 64 µg/mL
[7]; Klebsiella pneumoniae, clinical, Strain No. MP548, read-out: MIC K. pneumoniae clinical
  MIC: 64 µg/mL (≈ 74.9 µM)
[8]; Escherichia coli, ATCC25922, ATCC25922, Strain No. MP-4, read-out: MIC E. coli ATCC25922
  MIC: 32 µg/mL (≈ 37.5 µM)
[8]; Escherichia coli, ATCC25922, ATCC25922:tolC, Strain No. MP-9, read-out: MIC E. coli ATCC25922:tolC
  MIC: 4 µg/mL (≈ 4.68 µM)
[8]; Escherichia coli, clinical, Strain No. MP541, read-out: MIC E. coli clinical
  MIC: 32 µg/mL (≈ 37.5 µM)
[8]; Escherichia coli, clinical-cErm, Strain No. MP532, read-out: MIC E. coli clinical-cErm
  MIC: > 64 µg/mL

## CCC1OC(=O)C(C)C(=O)C(C)C(OC2OC(C)CC(N(C)CC#N)C2O)C(C)(OC)CC(C)CNC(C)C2N(CCCCn3cc(-c4cccc(N)c4)nn3)C(=O)OC12C (centres unmarked) [FSM-120371]
[1]; S. aureus (MRSA) GISA USA600, strain MP-619 UNT-120 (Table N2)
  MIC: >64 µg/mL
[1]; S. aureus (MRSA) ST-228 cErm, strain MP-513 (Table N2)
  MIC: >64 µg/mL
[1]; S. aureus (MRSA) USA100, strain MP-618 UNT-096 (Table N2)
  MIC: >64 µg/mL
[1]; S. aureus (MRSA) USA300, strain MP-549 (Table N2)
  MIC: 64 µg/mL (≈ 75 µM)
[1]; S. aureus (MRSA) ermA phenotype, strain MP-620 UNT-146 (Table N2)
  MIC: >64 µg/mL
[1]; S. aureus ATCC29213, strain MP-12 (Table N2)
  MIC: 32 µg/mL (≈ 37.5 µM)
[1]; S. aureus ATCCBAA-977, strain MP-17 (Table N2)
  MIC: 32 µg/mL (≈ 37.5 µM)
[2]; S. pneumoniae ATCC49619, strain MP-21 (Table N2)
  MIC: 0.25 µg/mL (≈ 0.293 µM)
[2]; S. pneumoniae mefA, strain MP-626 UNT-038 (Table N2)
  MIC: 0.25 µg/mL (≈ 0.293 µM)
[2]; S. pneumoniae mefA, strain MP-627 UNT-039 (Table N2)
  MIC: 0.5 µg/mL (≈ 0.586 µM)
[3]; E. faecalis ATCC29212, strain MP-24 (Table N2)
  MIC: 4 µg/mL (≈ 4.69 µM)
[3]; E. faecalis van resistant, strain UNT-039 (Table N2)
  MIC: 64 µg/mL (≈ 75 µM)
[4]; A. baumannii ATCC19606, strain MP-15 (Table N2)
  MIC: 32 µg/mL (≈ 37.5 µM)
[4]; A. baumannii clinical, strain MP576 (Table N2)
  MIC: >64 µg/mL
[4]; A. baumannii clinical, strain MP577 (Table N2)
  MIC: >64 µg/mL
[5]; P. aeruginosa ATCC27853, strain MP-3 (Table N2)
  MIC: >64 µg/mL
[5]; P. aeruginosa PAO1, strain MP-7 (Table N2)
  MIC: >64 µg/mL
[5]; P. aeruginosa PAO1:mex, strain MP-8 (Table N2)
  MIC: 32 µg/mL (≈ 37.5 µM)
[6]; S. pyogenes ATCC19615, strain MP-19 (Table N2)
  MIC: 0.125 µg/mL (≈ 0.147 µM)
[6]; S. pyogenes mac resistant, strain MP-625 UNT-014 (Table N2)
  MIC: 1 µg/mL (≈ 1.17 µM)
[7]; K pneumomae ATCC10031, strain MP-14 (Table N2)
  MIC: 8 µg/mL (≈ 9.38 µM)
[7]; K. pneumoniae clinical, strain MP546 (Table N2)
  MIC: >64 µg/mL
[7]; K. pneumoniae clinical, strain MP548 (Table N2)
  MIC: >64 µg/mL
[8]; E. coli ATCC25922, strain MP-4 (Table N2)
  MIC: 64 µg/mL (≈ 75 µM)
[8]; E. coli ATCC25922:tolC, strain MP-9 (Table N2)
  MIC: 16 µg/mL (≈ 18.8 µM)
[8]; E. coli clinical, strain MP541 (Table N2)
  MIC: 64 µg/mL (≈ 75 µM)
[8]; E. coli clinical-cErm, strain MP532 (Table N2)
  MIC: >64 µg/mL
